Results reported in patent US12648957B2, “Compositions and methods for the treatment of SWI-SNF mutant tumors” (The Children's Hospital of Philadelphia, priority 2019, dated 2026).

How the values were obtained:
[1] = test system: rhabdoid tumor cell lines (BT12 AT/RT, CHLA266 AT/RT, and G401 RTK); test: Cell proliferation assay (MTS CellTiter96), rhabdoid tumor vs Ewing sarcoma cells; format: cell-based; conditions: three rhabdoid tumor cell lines vs Ewing sarcoma cells, FIG. 1C
Description: (§1) Cell Culture. BT12 and CHLA266 cell lines were obtained from the Children's Oncology Group. G401 cell line was obtained from ATCC. TC32 cells were obtained from Dr. Lee Helman (Children's Hospital of Los Angeles). U2OS cells were obtained from Dr. Chand Khanna (Ethos Veterinary Health LLC). All cell lines were grown in RPMI-1640 medium (Invitrogen) supplemented with 10% fetal bovine serum (Gemini Bio-Products), 2 mM L-glutamine (Invitrogen), 100 U/mL penicillin and 100 μg/mL streptomycin (Invitrogen). Cell lines were maintained at less than 80% confluency at 37° C. and 5% CO2 and confirmed to be mycoplasma negative every 6-months.
(§2) Cell Proliferation Assays. IC50s were calculated with non-linear regression (Graphpad Prism) as the average of three independent experiments performed in duplicate. Cell viability was measured using MTS assay CellTiter96 (Promega) plotted against a standard curve and was confirmed with real-time proliferation assays on the Incucyte Zoom, as previously described (Harlow et al., 2019).

[2] = test system: BT12 and G401 rhabdoid tumor cells; test: Dose response curves in BT12 and G401 cells; format: cell-based; conditions: for sensitivity of rhabdoid tumor cells (dose response curve): BT12 and G401
Description: as §1, §2

[3] = test system: BT12 and G401 rhabdoid tumor cells; test: Live cell imaging proliferation and phenotype (Incucyte Zoom); format: cell-based; conditions: BT12, EC-8042 200 nM compared with mithramycin 100 nM
Description: as §2

[4] = multiple species; cited from earlier work
[5] = test system: G401 rhabdoid tumor xenografts; test: Intramuscular G401 rhabdoid tumor xenograft model; conditions: for median survival: vehicle 28-days
Description: Xenograft Experiments. 5×10^6 G401-luc cells were injected intramuscularly into the gastrocnemius of 8 to 10-week-old female homozygous nude mice (Crl; Nu-Foxn1^Nu). […] Pumps were implanted intraperitoneally and removed with 7-days after end of drug delivery. […] Investigators were not blinded to the treatment groups.
Bioluminescence Imaging. Mice were administered Firefly D-Luciferin (GoldBio, 1.5 mg/mouse) with intraperitoneal injections. After injection anesthesia was administered throughout the image acquisition (3% isoflurane at 1 L/min 02 flow). Bioluminescent images were taken 10 minutes after injection using the AMI-1000 imaging system.
Tissue Staining and Immunohistochemistry. Tissues were decalcified in 10% EDTA (pH 8.0) for 7-days prior to paraffin embedding. Paraffin embedded tissue was sectioned into 5-micrometer sections and mounted on colormark plus charged slides. Hematoxylin and Eosin staining was performed on the Ventana Symphony instrument. For immunohistochemistry, antigen retrieval was performed on the PT Link platform on the Dako Autostainer Plus instrument. Following blocking, tissue was incubated with H3K27me3 antibody (Abcam 1:250) or Cleaved Caspase-3 (Cell Signaling Antibody 1:250), washed and then secondary antibody (Envision+System HRP labelled polymer Anti-Rabbit, Dako 1:100) and finished with Dako Liquid DAB+Substrate Chromogen System.

SP1 = SP1 expression by quantitative PCR and western blot; conditions: BT12 and G401 cells, tolfenamic acid concentrations of FIG. 3G
Description: RNA was subsequently collected using the RNeasy kit and quantified. The RNA was reverse transcribed with the high capacity reverse transcriptase kit (Life Technologies) at 25° C. for 10 minutes, 37° C. for 120 minutes, and 85° C. for 5 minutes. 100 ng cDNA was PCR amplified with 2×SYBR green at 95° C. for 10 min, 95° C. for 15 s, 55° C. for 15s, and 72° C. for 1 min, for 40 cycles. Expression from three independent experiments performed in duplicate was calculated with standard ddCT methods relative to GAPDH and solvent controls.
Cellular fractionation was performed to separate cytoplasmic and nuclear fractions. Fractionation lysates were lysed with cytoplasmic lysis buffer (25 mM HEPES pH 8.0, 50 mM KCl, and 05% NP-40) supplemented with RNAse (Thermo Fisher Scientific) and protease inhibitors (Sigma-Aldrich) for 15-minutes on ice vortexing every 5-minutes. The nuclei were pelleted at 1500× g for 5 minutes and the cytoplasmic fraction was isolated. The nuclei pellet was lysed with 4% LDS lysis buffer. Following dilution of detergent, protein was quantified with the BCA colorimetric assay (Thermo-Scientific). […] Transfer was run at 20 V and 4° C. overnight. The membranes were blocked with 5% milk in TBS-T (1×TBS, 0.1% Tween-20) and probed with Abcam (H3K27me3), EMD Millipore (SP1), and Cell Signaling (SMARCC1, SMARCE1, H3) antibodies.

[6] = EC-8042 3-day pump, day 4, vs vehicle

**Q.** With COc1cc([C@@H]2c3cc4c(cc3[C@@H](O[C@@H]3O[C@@H]5CO[C@@H](C)O[C@H]5[C@H](O)[C@H]3O)[C@H]3COC(=O)[C@H]23)OCO4)cc(OC)c1O [etoposide] as the compound, how does the “fold less sensitive than Ewing sarcoma cells” value [1] read?
**A.** Its value is 70 fold.

**Q.** With COc1cccc2c1C(=O)c1c(O)c3c(c(O)c1C2=O)C[C@@](O)(C(=O)CO)C[C@@H]3O[C@H]1C[C@H](N)[C@H](O)[C@H](C)O1 [doxorubicin] as the compound, how does the “fold less sensitive than Ewing sarcoma cells” value [1] read?
**A.** The value was 4 fold.

**Q.** What does the source list for CO[C@@H]([C@@H]1Cc2cc3cc(O[C@H]4CC(O[C@H]5CC(O)[C@H](O)C(C)O5)[C@H](O)C(C)O4)c(C)c(O)c3c(O)c2C(=O)[C@H]1O[C@H]1CC(O[C@H]2CC(O[C@H]3CC(O)[C@H](O)C(C)O3)[C@@H](O)C(C)O2)[C@H](O)C(C)O1)[C@@H](O)C(C)=O (stereo partly drawn) [EC-8042, demycarosyl-3D-β-D-ditioxosyl-mithramycin SK]?
**A.** sensitivity of rhabdoid tumor cells (dose response curve) [2]: sensitive; concentration at which rhabdoid tumor is sensitive, relative to mithramycin ([2]; in vitro, FIGS. S5A-B): slightly higher concentration as mithramycin; cell phenotype [3]: lipid accumulation and a flattened cell phenotype; toxicity relative to mithramycin [4]: more than 10 times; body weight ([5]; EC-8042 3-day and 7-day pump, resolved with cessation of drug infusion): minimal transient weight loss; differentiation in xenograft tumors (H&E) ([5]; EC-8042 3-day or 7-day pump): striking evidence of mesenchymal differentiation; median survival ([5]; EC-8042 3-day pump (30 mg/kg)): 68 days; mice with complete cures ([5]; EC-8042 3-day pump cohort): Three; H3K27ac staining (IHC) [5, 6]: decrease; H3K27me3 staining (IHC) [5, 6]: significantly increase in positive staining; cleaved caspase 3 (CC3) staining (IHC) [5, 6]: significantly increase in positive staining; human mitochondrial staining (IHC) [5, 6]: decrease; median survival ([5]; EC-8042 7-day pump (50 mg/kg)): 70 days; calcification of tumor tissue (micro-CT) ([5]; EC-8042, 7-days after treatment, compared with vehicle): enhances the calcification and mineralization; duration of response post end of infusion ([5]; EC-8042, most mice): ~6 weeks; time after treatment without tumor recurrence in cured mice ([5]; EC-8042, several mice): 140 days; bioluminescent imaging of tumor ([5]; EC-8042, subset of mice, end of infusion): almost no detectable tumor; time to tumor recurrence after treatment end ([5]; EC-8042 continuous infusion): approximately 40 days; tumor response ([5]; EC-8042 continuous infusion, 3-days (30 mg/kg) or 7-days (50 mg/kg), all mice in both cohorts): striking regressions

**Q.** Which “sensitivity of rhabdoid tumor cells (dose response curve)” value [2] does the source give for Cc1c(Cl)cccc1Nc1ccccc1C(=O)O [tolfenamic acid, reference compound] here?
**A.** Its value is “not sensitive”.

**Q.** What about the “SP1 expression (western blot)” value (SP1) of the same compound?
**A.** Its value is “loss of SP1 expression”.

**Q.** With CCc1c2c(nc3ccc(O)cc13)-c1cc3c(c(=O)n1C2)COC(=O)[C@]3(O)CC [SN38] as the compound, how does the “fold less sensitive than Ewing sarcoma cells” value [1] read?
**A.** The value was 100 fold.
